Literature values as cited in patent publication US20100239707A1 (priority 2007, published 2010).
“Also recorded” adds a separate entry of the source.

Columns and labels:
[1] = unprimed
[2] = not given; remark: listed apart in the source

| Molecule | effect on muscle fibers / myotubes (myotubes) | also measured |
| --- | --- | --- |
| COC(=O)Nc1nc2ccc(C(=O)c3cccs3)cc2[nH]1 [nocodazole] | causes the disassembly of myotubes; also recorded: result in cell fission with cells that exhibit DNA sysnthesis and cell growth |  |
| lipopolysaccharide [LPS] |  | LD50 [1]: ~1 mg/kg |
| CC(=O)O[C@H]1C(=O)[C@@]2(C)[C@H]([C@H](OC(=O)c3ccccc3)[C@]3(O)C[C@H](OC(=O)[C@H](O)[C@@H](NC(=O)c4ccccc4)c4ccccc4)C(C)=C1C3(C)C)[C@]1(OC(C)=O)CO[C@@H]1C[C@@H]2O [taxol] | causes the disassembly of myotubes | intravenous LD50: 33 mg/kg |
| OO [hydrogen peroxide] |  | concentration inducing apoptosis (cell culture cells): micromolar concentrations |
| COc1cc2c(c(OC)c1OC)-c1ccc(OC)c(=O)cc1[C@@H](NC(C)=O)CC2 [colchicine] | causes the disassembly of myotubes |  |
| COc1ccc(CNc2nc(NCc3ccc(OC)cc3)c3ncn(C(C)C)c3n2)cc1 [myoseverin] | result in cell fission with cells that exhibit DNA sysnthesis and cell growth |  |
| CC[C@]1(O)C[C@@H]2CN(CCc3c([nH]c4ccccc34)[C@@](C(=O)OC)(c3cc4c(cc3OC)N(C)[C@H]3[C@@](O)(C(=O)OC)[C@H](OC(C)=O)[C@]5(CC)C=CCN6CC[C@]43[C@@H]65)C2)C1 [vinblastine] | causes the disassembly of myotubes | oral LD50 [2]: 300 to 400 mg/kg |
| [Ca+2].[Cl-].[Cl-] [anhydrous CaCl2, CaCl2] |  | intravenous LD50: about 40 mg/kg |
